Assay results published in PubChem BioAssay AID2061108 (Research group of Professor Matthew Todd, School of …, 2025).
Activity calls are given as the source filed them. No rule for the calls is given here.

Tested on: E. coli NCTC 12923 + PMBN growth inhibition, 100 uM
Assay: microbial growth inhibition plus red cell haemolysis – Idler compounds, first plate, PMBN-permeabilized strains, profiling panel (AID 2061108)
Details: S. aureus ATCC 9144 growth inhibition; measured here: E. coli plus PMBN; at 100 µM; stronger effect = higher value

**Q.** `C=CCSc1nc2c(c(=O)[nH]1)C(c1ccc(N(C)C)cc1)C1=C(CCCC1=O)N2` (stereo unspecified) was tested. Which inhibition did it give?
**A.** -12.3%

**Q.** `Cn1nc(NC(=O)Nc2ccc(Cl)cc2)cc1C(C)(C)C` was tested. Which inhibition did it give?
**A.** -30.4%

**Q.** Which inhibition does the source give for `Cc1ncsc1CCCN(C)c1cnc(S(=O)(=O)F)c(Br)c1` here?
**A.** 0.37%

**Q.** `Cc1cc(NC(=O)c2ccc(F)c(C(C)(C)C#N)c2)nn1C` was tested. Which inhibition did it give?
**A.** -1.71%

**Q.** Which inhibition does the source give for `Nc1ncc(/C=N/NC(=O)c2ccncc2)cn1` here?
**A.** -2.1%

**Q.** With `COc1cccc(C(=O)NCCOCc2cccc(N)c2)c1` as the compound, how does the inhibition read?
**A.** 4.39%

**Q.** With `Cc1cc(C)c(S(=O)(=O)N2CCC(C(=O)NCc3cccnc3)CC2)c(C)c1` as the compound, how does the inhibition read?
**A.** 5.73%

**Q.** How did the inhibition turn out when `CC1(C)C2CCC1(C)C(OCC(O)CNC1CCCCC1)C2` (stereo unspecified) was run?
**A.** 100%

**Q.** With `COC(=O)c1ccc(C2CN(c3ccnc(S(=O)(=O)F)c3)C2)nc1` as the compound, how does the inhibition read?
**A.** 11.4%

Tested on: M. abscessus growth inhibition, 10 uM
Assay: as above
Details: S. aureus ATCC 9144 growth inhibition; measured here: M. abscessus; at 10 µM

**Q.** `CCOc1ccc2ncc(C#N)c(N3CCC(C(=O)NCc4ccccc4F)CC3)c2c1` was tested. Which inhibition did it give?
**A.** -0.367%

**Q.** Which inhibition does the source give for `CC(C)c1conc1CNc1ccnc(S(=O)(=O)F)c1` here?
**A.** -1.22%

**Q.** How did the inhibition turn out when `Cn1c(=O)oc2cc(S(=O)(=O)NC3CC4CCC3C4)ccc21` (stereo unspecified) was run?
**A.** -0.526%

**Q.** How did the inhibition turn out when `COc1ccc(Nc2nc(-c3ccoc3)cs2)c(C)c1` was run?
**A.** -1.05%

**Q.** `COc1ccc(-c2ccc(CNc3ccnc(S(=O)(=O)F)c3)s2)cc1` was tested. Which inhibition did it give?
**A.** -0.879%

**Q.** With `CC(C)NC(=O)Nc1cccc(C(=O)NC(C)c2cccc(Br)c2)c1` (stereo unspecified) as the compound, how does the inhibition read?
**A.** -1.08%

**Q.** `CCOc1ccc(-c2cc(=O)n(CC(=O)N3CCC(Cc4ccccc4)CC3)cn2)cc1` was tested. Which inhibition did it give?
**A.** -1.03%

**Q.** How did the inhibition turn out when `NC(=O)CSc1nnc(COc2ccccc2)n1-c1ccccc1` was run?
**A.** 0.484%

**Q.** For `O=S(=O)(c1ccc2nncn2c1)N(Cc1cccc(F)c1)c1ccc2c(c1)OCCO2`, which inhibition is on record?
**A.** -0.196%

**Q.** With `C=CCSc1nc2c(c(=O)[nH]1)C(c1ccc(N(C)C)cc1)C1=C(CCCC1=O)N2` (stereo unspecified) as the compound, how does the inhibition read?
**A.** -0.888%

**Q.** With `Cn1nc(NC(=O)Nc2ccc(Cl)cc2)cc1C(C)(C)C` as the compound, how does the inhibition read?
**A.** -0.422%

**Q.** How did the inhibition turn out when `Cc1ncsc1CCCN(C)c1cnc(S(=O)(=O)F)c(Br)c1` was run?
**A.** -0.937%

**Q.** `Cc1cc(NC(=O)c2ccc(F)c(C(C)(C)C#N)c2)nn1C` was tested. Which inhibition did it give?
**A.** 0.104%

**Q.** Which inhibition does the source give for `Nc1ncc(/C=N/NC(=O)c2ccncc2)cn1` here?
**A.** -0.71%

**Q.** How did the inhibition turn out when `COc1cccc(C(=O)NCCOCc2cccc(N)c2)c1` was run?
**A.** -0.253%

**Q.** For `Cc1cc(C)c(S(=O)(=O)N2CCC(C(=O)NCc3cccnc3)CC2)c(C)c1`, which inhibition is on record?
**A.** 0.182%

**Q.** Which inhibition does the source give for `CC1(C)C2CCC1(C)C(OCC(O)CNC1CCCCC1)C2` (stereo unspecified) here?
**A.** -1.25%

**Q.** For `COC(=O)c1ccc(C2CN(c3ccnc(S(=O)(=O)F)c3)C2)nc1`, which inhibition is on record?
**A.** -1.03%

Tested on: A. baumannii ATCC 17978 + PMBN growth inhibition, 100 uM
Assay: as above
Details: A. baumannii plus PMBN growth inhibition, 100 µM; stronger effect = higher value

**Q.** For `CCOc1ccc2ncc(C#N)c(N3CCC(C(=O)NCc4ccccc4F)CC3)c2c1`, which inhibition is on record?
**A.** 1%

**Q.** `CC(C)c1conc1CNc1ccnc(S(=O)(=O)F)c1` was tested. Which inhibition did it give?
**A.** 13%

**Q.** Which inhibition does the source give for `Cn1c(=O)oc2cc(S(=O)(=O)NC3CC4CCC3C4)ccc21` (stereo unspecified) here?
**A.** 25.8%

**Q.** `COc1ccc(Nc2nc(-c3ccoc3)cs2)c(C)c1` was tested. Which inhibition did it give?
**A.** 16.4%

**Q.** `COc1ccc(-c2ccc(CNc3ccnc(S(=O)(=O)F)c3)s2)cc1` was tested. Which inhibition did it give?
**A.** 38%

**Q.** With `CC(C)NC(=O)Nc1cccc(C(=O)NC(C)c2cccc(Br)c2)c1` (stereo unspecified) as the compound, how does the inhibition read?
**A.** 34.3%

**Q.** Which inhibition does the source give for `CCOc1ccc(-c2cc(=O)n(CC(=O)N3CCC(Cc4ccccc4)CC3)cn2)cc1` here?
**A.** 11%

**Q.** Which inhibition does the source give for `NC(=O)CSc1nnc(COc2ccccc2)n1-c1ccccc1` here?
**A.** 23.4%

**Q.** `O=S(=O)(c1ccc2nncn2c1)N(Cc1cccc(F)c1)c1ccc2c(c1)OCCO2` was tested. Which inhibition did it give?
**A.** 11.3%

**Q.** With `C=CCSc1nc2c(c(=O)[nH]1)C(c1ccc(N(C)C)cc1)C1=C(CCCC1=O)N2` (stereo unspecified) as the compound, how does the inhibition read?
**A.** 1.16%

**Q.** How did the inhibition turn out when `Cn1nc(NC(=O)Nc2ccc(Cl)cc2)cc1C(C)(C)C` was run?
**A.** -3%

**Q.** For `Cc1ncsc1CCCN(C)c1cnc(S(=O)(=O)F)c(Br)c1`, which inhibition is on record?
**A.** 21.9%

**Q.** Which inhibition does the source give for `Cc1cc(NC(=O)c2ccc(F)c(C(C)(C)C#N)c2)nn1C` here?
**A.** 22.3%

**Q.** Which inhibition does the source give for `Nc1ncc(/C=N/NC(=O)c2ccncc2)cn1` here?
**A.** 11.3%

**Q.** Which inhibition does the source give for `COc1cccc(C(=O)NCCOCc2cccc(N)c2)c1` here?
**A.** 23.9%

**Q.** For `Cc1cc(C)c(S(=O)(=O)N2CCC(C(=O)NCc3cccnc3)CC2)c(C)c1`, which inhibition is on record?
**A.** 25.7%

**Q.** With `CC1(C)C2CCC1(C)C(OCC(O)CNC1CCCCC1)C2` (stereo unspecified) as the compound, how does the inhibition read?
**A.** 79.1%

**Q.** Which inhibition does the source give for `COC(=O)c1ccc(C2CN(c3ccnc(S(=O)(=O)F)c3)C2)nc1` here?
**A.** 22.5%

Tested on: S. aureus ATCC 9144 growth inhibition, 100 uM
Assay: as above
Details: S. aureus ATCC 9144 growth inhibition; at 100 µM; stronger effect = higher value

**Q.** `CCOc1ccc2ncc(C#N)c(N3CCC(C(=O)NCc4ccccc4F)CC3)c2c1` was tested. Which inhibition did it give?
**A.** -21.2% (inactive)

**Q.** `CC(C)c1conc1CNc1ccnc(S(=O)(=O)F)c1` was tested. Which inhibition did it give?
**A.** 16.8% (inactive)

**Q.** For `Cn1c(=O)oc2cc(S(=O)(=O)NC3CC4CCC3C4)ccc21` (stereo unspecified), which inhibition is on record?
**A.** 17.3% (inactive)

**Q.** Which inhibition does the source give for `COc1ccc(Nc2nc(-c3ccoc3)cs2)c(C)c1` here?
**A.** -12.5% (inactive)

**Q.** For `COc1ccc(-c2ccc(CNc3ccnc(S(=O)(=O)F)c3)s2)cc1`, which inhibition is on record?
**A.** 24.7%

**Q.** With `CC(C)NC(=O)Nc1cccc(C(=O)NC(C)c2cccc(Br)c2)c1` (stereo unspecified) as the compound, how does the inhibition read?
**A.** 3.67% (inactive)

**Q.** For `CCOc1ccc(-c2cc(=O)n(CC(=O)N3CCC(Cc4ccccc4)CC3)cn2)cc1`, which inhibition is on record?
**A.** 5.33% (inactive)

**Q.** How did the inhibition turn out when `NC(=O)CSc1nnc(COc2ccccc2)n1-c1ccccc1` was run?
**A.** 15.3% (inactive)

**Q.** With `O=S(=O)(c1ccc2nncn2c1)N(Cc1cccc(F)c1)c1ccc2c(c1)OCCO2` as the compound, how does the inhibition read?
**A.** -8.6% (inactive)

**Q.** For `C=CCSc1nc2c(c(=O)[nH]1)C(c1ccc(N(C)C)cc1)C1=C(CCCC1=O)N2` (stereo unspecified), which inhibition is on record?
**A.** -16.3% (inactive)

**Q.** For `Cn1nc(NC(=O)Nc2ccc(Cl)cc2)cc1C(C)(C)C`, which inhibition is on record?
**A.** -14.7% (inactive)

**Q.** With `Cc1ncsc1CCCN(C)c1cnc(S(=O)(=O)F)c(Br)c1` as the compound, how does the inhibition read?
**A.** 16.7% (inactive)

**Q.** `Cc1cc(NC(=O)c2ccc(F)c(C(C)(C)C#N)c2)nn1C` was tested. Which inhibition did it give?
**A.** 1.75% (inactive)

**Q.** `Nc1ncc(/C=N/NC(=O)c2ccncc2)cn1` was tested. Which inhibition did it give?
**A.** 19.2% (inactive)

**Q.** `COc1cccc(C(=O)NCCOCc2cccc(N)c2)c1` was tested. Which inhibition did it give?
**A.** 13.7% (inactive)

**Q.** For `Cc1cc(C)c(S(=O)(=O)N2CCC(C(=O)NCc3cccnc3)CC2)c(C)c1`, which inhibition is on record?
**A.** 12.6% (inactive)

**Q.** For `CC1(C)C2CCC1(C)C(OCC(O)CNC1CCCCC1)C2` (stereo unspecified), which inhibition is on record?
**A.** 17%

**Q.** Which inhibition does the source give for `COC(=O)c1ccc(C2CN(c3ccnc(S(=O)(=O)F)c3)C2)nc1` here?
**A.** 16.7% (inactive)

Tested on: A. baumannii ATCC 17978 growth inhibition, 100 uM
Assay: as above
Details: S. aureus ATCC 9144 growth inhibition; measured here: A. baumannii ATCC 17978; at 100 µM; stronger effect = higher value

**Q.** With `CCOc1ccc2ncc(C#N)c(N3CCC(C(=O)NCc4ccccc4F)CC3)c2c1` as the compound, how does the inhibition read?
**A.** -5.66%

**Q.** `CC(C)c1conc1CNc1ccnc(S(=O)(=O)F)c1` was tested. Which inhibition did it give?
**A.** -0.119%

**Q.** Which inhibition does the source give for `Cn1c(=O)oc2cc(S(=O)(=O)NC3CC4CCC3C4)ccc21` (stereo unspecified) here?
**A.** -1.79%

**Q.** `COc1ccc(Nc2nc(-c3ccoc3)cs2)c(C)c1` was tested. Which inhibition did it give?
**A.** -13.9%

**Q.** For `COc1ccc(-c2ccc(CNc3ccnc(S(=O)(=O)F)c3)s2)cc1`, which inhibition is on record?
**A.** 8.21%

**Q.** `CC(C)NC(=O)Nc1cccc(C(=O)NC(C)c2cccc(Br)c2)c1` (stereo unspecified) was tested. Which inhibition did it give?
**A.** 4.29%

**Q.** Which inhibition does the source give for `CCOc1ccc(-c2cc(=O)n(CC(=O)N3CCC(Cc4ccccc4)CC3)cn2)cc1` here?
**A.** -13.5%

**Q.** `NC(=O)CSc1nnc(COc2ccccc2)n1-c1ccccc1` was tested. Which inhibition did it give?
**A.** 0.843%

**Q.** For `O=S(=O)(c1ccc2nncn2c1)N(Cc1cccc(F)c1)c1ccc2c(c1)OCCO2`, which inhibition is on record?
**A.** -2.17%

**Q.** With `C=CCSc1nc2c(c(=O)[nH]1)C(c1ccc(N(C)C)cc1)C1=C(CCCC1=O)N2` (stereo unspecified) as the compound, how does the inhibition read?
**A.** 1.79%

**Q.** For `Cn1nc(NC(=O)Nc2ccc(Cl)cc2)cc1C(C)(C)C`, which inhibition is on record?
**A.** -22%

**Q.** With `Cc1ncsc1CCCN(C)c1cnc(S(=O)(=O)F)c(Br)c1` as the compound, how does the inhibition read?
**A.** -2.86%

**Q.** `Cc1cc(NC(=O)c2ccc(F)c(C(C)(C)C#N)c2)nn1C` was tested. Which inhibition did it give?
**A.** -0.843%

**Q.** Which inhibition does the source give for `Nc1ncc(/C=N/NC(=O)c2ccncc2)cn1` here?
**A.** -1.43%

**Q.** How did the inhibition turn out when `COc1cccc(C(=O)NCCOCc2cccc(N)c2)c1` was run?
**A.** -1.45%

**Q.** `Cc1cc(C)c(S(=O)(=O)N2CCC(C(=O)NCc3cccnc3)CC2)c(C)c1` was tested. Which inhibition did it give?
**A.** -2.53%

**Q.** With `CC1(C)C2CCC1(C)C(OCC(O)CNC1CCCCC1)C2` (stereo unspecified) as the compound, how does the inhibition read?
**A.** 29.4%

**Q.** Which inhibition does the source give for `COC(=O)c1ccc(C2CN(c3ccnc(S(=O)(=O)F)c3)C2)nc1` here?
**A.** 0.357%
